Source: ChEMBL document CHEMBL4610120, “New Broad-Spectrum Antibiotics Containing a Pyrrolobenzodiazepine Ring with Activity against Multidrug-Resistant Gram-Negative Bacteria” (J Med Chem, 2020)
≈ marks a conversion by molar mass, not a printed value.

Legend:
[1] = Selectivity ratio of cytotoxicity against human WI38 cells to MIC for methicillin sensitive Staphylococcus aureus NCTC 6571; format: toxicity, cell-based
[2] = Selectivity ratio of cytotoxicity against human WI38 cells to MIC for Klebsiella pneumoniae M6; format: toxicity, cell-based
[3] = Selectivity ratio of cytotoxicity against human WI38 cells to MIC for multidrug-resistant Acinetobacter baumannii AYE; format: toxicity, cell-based
Klebsiella pneumoniae [4] = assay: Antimicrobial activity against multidrug-resistant Klebsiella pneumoniae 16 by microdilution broth method; format: functional
Pseudomonas aeruginosa [5] = assay: Antimicrobial activity against multidrug-resistant Pseudomonas aeruginosa NCTC 13437 in presence of efflux pump inhibitor CCCP by microdilution broth method; format: functional
Acinetobacter baumannii [6] = assay: Antimicrobial activity against multidrug-resistant Acinetobacter baumannii AYE by microdilution broth method; format: functional
[7] = Selectivity ratio of cytotoxicity against human WI38 cells to MIC for methicillin resistant Staphylococcus aureus NCTC 13616; format: toxicity, cell-based
[8] = target: T1, Protein RecA (Escherichia coli K-12) (UniProt P0A7G6); assay: Induction of Escherichia coli K12 MG1655 recA promotor measured at 30 mins interval for 20 hrs by fluorescence assay relative to control; conditions: Escherichia coli str. K-12 substr. MG1655
T1 sequence (whole entry): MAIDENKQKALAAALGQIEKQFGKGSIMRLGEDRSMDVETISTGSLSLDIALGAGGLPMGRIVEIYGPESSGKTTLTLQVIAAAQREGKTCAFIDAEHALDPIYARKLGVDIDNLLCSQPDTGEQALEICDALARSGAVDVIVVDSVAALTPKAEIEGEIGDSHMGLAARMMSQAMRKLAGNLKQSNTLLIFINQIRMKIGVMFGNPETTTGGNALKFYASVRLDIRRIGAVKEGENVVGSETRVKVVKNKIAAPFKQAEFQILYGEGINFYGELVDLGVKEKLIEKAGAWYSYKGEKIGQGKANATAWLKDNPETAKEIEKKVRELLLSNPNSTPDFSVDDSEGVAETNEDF

[9] = Antimicrobial activity against multidrug-resistant Burkholderia cepacia complex NCTC 10743 by microdilution broth method; format: functional
Staphylococcus aureus = assay: Antibacterial activity against methicillin resistant Staphylococcus aureus NCTC 13616 by microdilution broth method; format: functional
[10] = target: T2, Cell division inhibitor SulA (Escherichia coli K-12) (UniProt P0AFZ5); assay: Induction of Escherichia coli K12 MG1655 sulA promotor measured at 30 mins interval for 20 hrs by fluorescence assay relative to control; conditions: Escherichia coli str. K-12 substr. MG1655
T2 sequence (whole entry): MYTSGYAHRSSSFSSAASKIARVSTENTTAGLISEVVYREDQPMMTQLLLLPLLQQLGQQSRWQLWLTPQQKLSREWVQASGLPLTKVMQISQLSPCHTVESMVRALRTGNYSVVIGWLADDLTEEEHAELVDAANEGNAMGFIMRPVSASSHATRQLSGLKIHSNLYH

[11] = Antimicrobial activity against multidrug-resistant Burkholderia cepacia complex LMG 17997 by microdilution broth method; format: functional
[12] = target: T3, LexA repressor (Escherichia coli) (UniProt P0A7C2); assay: Induction of Escherichia coli K12 MG1655 lexA promotor measured at 30 mins interval for 20 hrs by fluorescence assay relative to control; conditions: Escherichia coli str. K-12 substr. MG1655
T3 sequence (whole entry): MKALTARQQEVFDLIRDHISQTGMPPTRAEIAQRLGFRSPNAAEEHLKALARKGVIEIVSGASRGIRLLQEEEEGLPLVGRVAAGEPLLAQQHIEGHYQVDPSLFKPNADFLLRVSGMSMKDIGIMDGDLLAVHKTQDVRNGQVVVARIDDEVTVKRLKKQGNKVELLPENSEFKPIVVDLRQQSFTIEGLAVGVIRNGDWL

Klebsiella pneumoniae [13] = assay: Antibacterial activity against multidrug-resistant Klebsiella pneumoniae NCTC 13368 measured after 10 passages by microdilution broth method; format: functional
Klebsiella pneumoniae [14] = assay: Antimicrobial activity against multidrug-resistant Klebsiella pneumoniae 51851 by microdilution broth method; format: functional
Acinetobacter baylyi = assay: Antimicrobial activity against multidrug-resistant Acinetobacter baylyi ADP1 by microdilution broth method; format: functional
Pseudomonas aeruginosa [15] = assay: Antimicrobial activity against Pseudomonas aeruginosa PAO1 in presence of efflux pump inhibitor CCCP by microdilution broth method; format: functional
Pseudomonas aeruginosa [16] = assay: Antimicrobial activity against multidrug-resistant Pseudomonas aeruginosa NCTC 13437 in presence of efflux pump inhibitor PAbetaN by microdilution broth method; format: functional
Escherichia coli [17] = assay: Antimicrobial activity against multidrug-resistant Escherichia coli CFI_161_NDM_5_OXA_181 by microdilution broth method; format: functional
Burkholderia multivorans = assay: Antimicrobial activity against multidrug-resistant Burkholderia multivorans C1962 by microdilution broth method; format: functional
Enterococcus faecium = assay: Antibacterial activity against vancomycin resistant Enterococcus faecium NCTC 12204 by microdilution broth method; format: functional
[18] = Antimicrobial activity against multidrug-resistant Burkholderia cepacia complex CEP509 by microdilution broth method; format: functional
Pseudomonas aeruginosa [19] = assay: Ratio of MIC for multidrug-resistant Pseudomonas aeruginosa NCTC 13437 to MIC for multidrug-resistant Pseudomonas aeruginosa NCTC 13437 in presence of membrane permeabilizer PMBN; format: functional
Escherichia coli [20] = assay: Antimicrobial activity against multidrug-resistant Escherichia coli CFI_017_VIM4 by microdilution broth method; format: functional
Escherichia coli [21] = assay: Antimicrobial activity against multidrug-resistant Escherichia coli NCTC 12923 by microdilution broth method; format: functional
Acinetobacter baumannii [22] = assay: Antimicrobial activity against multidrug-resistant Acinetobacter baumannii AYE in presence of efflux pump inhibitor PAbetaN by microdilution broth method; format: functional
Klebsiella pneumoniae [23] = assay: Ratio of MIC for multidrug-resistant Klebsiella pneumoniae 16 to MIC for multidrug-resistant Klebsiella pneumoniae 16 in presence of membrane permeabilizer PMBN; format: functional
[24] = Selectivity ratio of cytotoxicity against human WI38 cells to MIC for vancomycin sensitive Enterococcus faecalis NCTC 775; format: toxicity, cell-based
Burkholderia cenocepacia = assay: Antimicrobial activity against multidrug-resistant Burkholderia cenocepacia K56-2 by microdilution broth method; format: functional
Acinetobacter baumannii [25] = assay: Antimicrobial activity against Acinetobacter baumannii ATCC 17978 in presence of efflux pump inhibitor PAbetaN by microdilution broth method; format: functional
[26] = Selectivity ratio of cytotoxicity against human WI38 cells to MIC for methicillin resistant Staphylococcus aureus NCTC 13277; format: toxicity, cell-based
Escherichia coli [27] = assay: Antimicrobial activity against multidrug-resistant Escherichia coli CFI_160_KPC2 by microdilution broth method; format: functional
DNA gyrase = DNA gyrase (Escherichia coli, UniProt P0AES6+P0AES4); assay: Inhibition of Escherichia coli DNA gyrase using relaxed pNO1 as substrate by gel based fluorescence assay; format: protein-complex assay
Escherichia coli [28] = assay: Antimicrobial activity against multidrug-resistant Escherichia coli 319238/UR by microdilution broth method; format: functional
Klebsiella pneumoniae [29] = assay: Antimicrobial activity against multidrug-resistant Klebsiella pneumoniae 16 in presence of efflux pump inhibitor CCCP by microdilution broth method; format: functional
Klebsiella pneumoniae [30] = assay: Antimicrobial activity against multidrug-resistant Klebsiella pneumoniae NCTC 13368 in presence of efflux pump inhibitor CCCP by microdilution broth method; format: functional
Escherichia coli [31] = assay: Antimicrobial activity against multidrug-resistant Escherichia coli LEC001 by microdilution broth method; format: functional
[32] = Selectivity ratio of cytotoxicity against human WI38 cells to MIC for multidrug-resistant Klebsiella pneumoniae NCTC 13368; format: toxicity, cell-based

Structure (SMILES)	selectivity ratio [1]	selectivity ratio [2]	selectivity ratio [3]	MIC (Klebsiella pneumoniae [4]) [µg/mL]	MIC (Pseudomonas aeruginosa [5]) [µg/mL]	MIC (Acinetobacter baumannii [6]) [µg/mL]	selectivity ratio [7]	fold change (FC) [8]	MIC [9] [µg/mL]	MIC (Staphylococcus aureus) [µg/mL]	fold change (FC) [10]	MIC [11] [µg/mL]	fold change (FC) [12]	MIC (Klebsiella pneumoniae [13]) [µg/mL]	MIC (Klebsiella pneumoniae [14]) [µg/mL]	MIC (Acinetobacter baylyi) [µg/mL]	MIC (Pseudomonas aeruginosa [15]) [µg/mL]	MIC (Pseudomonas aeruginosa [16]) [µg/mL]	MIC (Escherichia coli [17]) [µg/mL]	MIC (Burkholderia multivorans) [µg/mL]	further results
COc1cc2c(cc1OCCCC(=O)Nc1cc(C(=O)Nc3ccc4sc(C(=O)N(C)C)cc4c3)n(C)c1)N=C[C@@H]1CCCN1C2=O	100	10	10	0.25 to 1 (≈ 0.381 to 1.52 µM)	> 32	0.5 to 1 (≈ 0.761 to 1.52 µM)	100	8 to 10	1 to 2 (≈ 1.52 to 3.05 µM)	0.03 (≈ 0.0457 µM)	6 to 7	0.125 (≈ 0.19 µM)	5 to 9	> 32	2 (≈ 3.05 µM)	0.125 (≈ 0.19 µM)	> 32	16	0.5 (≈ 0.761 µM)	2 (≈ 3.05 µM)	MIC (Enterococcus faecium): 0.03 µg/mL (≈ 0.0457 µM); MIC [18]: 2 µg/mL (≈ 3.05 µM); Ratio (Pseudomonas aeruginosa [19]): 32 - 1000; MIC (Escherichia coli [20]): 1 µg/mL (≈ 1.52 µM); MIC (Escherichia coli [21]): 0.5 µg/mL (≈ 0.761 µM); MIC (Acinetobacter baumannii [22]): 0.25 µg/mL; Ratio (Klebsiella pneumoniae [23]): 4; selectivity ratio [24]: 100; MIC (Burkholderia cenocepacia): 2 µg/mL (≈ 3.05 µM); MIC (Acinetobacter baumannii [25]): 0.25 µg/mL; selectivity ratio [26]: 100; MIC (Escherichia coli [27]): 0.5 µg/mL (≈ 0.761 µM); IC50 (DNA gyrase): Nd(Insoluble); MIC (Escherichia coli [28]): 0.5 µg/mL (≈ 0.761 µM); MIC (Klebsiella pneumoniae [29]): 0.06 to 0.5 µg/mL; MIC (Klebsiella pneumoniae [30]): 2 µg/mL; MIC (Escherichia coli [31]): 1 µg/mL (≈ 1.52 µM); selectivity ratio [32]: 10
COc1cc2c(cc1OCCCC(=O)Nc1cc(C(=O)Nc3ccc4oc(C(=O)N5CCSCC5)cc4c3)n(C)c1)N=C[C@@H]1CCCN1C2=O	100	10	10	1 (≈ 1.43 µM)	> 32	2 to 4 (≈ 2.86 to 5.72 µM)	100	8 to 10	16 (≈ 22.9 µM)	2 (≈ 2.86 µM)	6 to 7	0.25 (≈ 0.358 µM)	5 to 9	≥ 128	4 (≈ 5.72 µM)	1 (≈ 1.43 µM)	> 32	> 32	1 (≈ 1.43 µM)	> 32	MIC (Enterococcus faecium): 0.03 µg/mL (≈ 0.0429 µM); MIC [18]: 8 µg/mL (≈ 11.4 µM); Ratio (Pseudomonas aeruginosa [19]): >=8 - 64; MIC (Escherichia coli [20]): 2 µg/mL (≈ 2.86 µM); MIC (Escherichia coli [21]): 2 µg/mL (≈ 2.86 µM); MIC (Acinetobacter baumannii [22]): 2 µg/mL; Ratio (Klebsiella pneumoniae [23]): 4; selectivity ratio [24]: 100; MIC (Burkholderia cenocepacia): 1 µg/mL (≈ 1.43 µM); MIC (Acinetobacter baumannii [25]): 2 µg/mL; selectivity ratio [26]: 100; MIC (Escherichia coli [27]): 4 µg/mL (≈ 5.72 µM); IC50 (DNA gyrase): Nd(Insoluble); MIC (Escherichia coli [28]): 1 µg/mL (≈ 1.43 µM); MIC (Klebsiella pneumoniae [29]): 0.12 to 1 µg/mL; MIC (Klebsiella pneumoniae [30]): > 32 µg/mL; MIC (Escherichia coli [31]): 2 µg/mL (≈ 2.86 µM); selectivity ratio [32]: 10
